From ChEMBL document CHEMBL6120949, “Fully Synthetic TF-Based Self-Adjuvanting Vaccine Simultaneously Triggers iNKT Cells and Mincle and Protects Mice against Tumor Development” (2024)
Calls of active or inactive are those of the source. The rule behind the calls is not given here.

Experiments:
4T1-Luc [1] = experiment: Cytotoxicity against TF-positive mouse 4T1-Luc cells treated with anti-serum derived from compound-vaccinated mouse for 2 hrs followed by anti-serum washout and addition of rabbit complement serum measured after 1 hr by LDH assay; format: functional, cell-based
Mus musculus [2] = experiment: Antitumor activity in cyclophosphamide-treated Balb/c mouse assessed as average survival time compound administered as liposomes subcutaneously on day 0 in presence of TF followed by administration of booster doses on days 14, 21 and 28 and implantation of mouse TA3/Ha cells on day 35 measured upto 50 days post-tumor challenge; format: functional; conditions: route sc; time <= 85 day
Mus musculus [3] = experiment: Immunization of Balb/c mouse assessed as increase in IFN-gamma level compound administered as liposomes subcutaneously on day 0 in presence of TF followed by administration of booster doses on days 14, 21 and 28 measured on days 21, 27 and 38 by ELISA; format: functional, organism-based; conditions: route sc, time 38.0 day
Mus musculus [4] = experiment: Immunization of Balb/c mouse assessed as increase in IgG titer compound administered as liposomes subcutaneously on day 0 in presence of TF followed by administration of booster doses on days 14, 21 and 28 measured on days 21, 27 and 38 by ELISA; format: functional, organism-based; conditions: route sc, time 38.0 day
[5] = molecular target: T1, Antigen-presenting glycoprotein CD1d1 (Mus musculus) (UniProt P11609); experiment: Binding affinity to His-tagged mouse CD1d incubated for 1.5 hrs by ELISA
T1 sequence (whole entry): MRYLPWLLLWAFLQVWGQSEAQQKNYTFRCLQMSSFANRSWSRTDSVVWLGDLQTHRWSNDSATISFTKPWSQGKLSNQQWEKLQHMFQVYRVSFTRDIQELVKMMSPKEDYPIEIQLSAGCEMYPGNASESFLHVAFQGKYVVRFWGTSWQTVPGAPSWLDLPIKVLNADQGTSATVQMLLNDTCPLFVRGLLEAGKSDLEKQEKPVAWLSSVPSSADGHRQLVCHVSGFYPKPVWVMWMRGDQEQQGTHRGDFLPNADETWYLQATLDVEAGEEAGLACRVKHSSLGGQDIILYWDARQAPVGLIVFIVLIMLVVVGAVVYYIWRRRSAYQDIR

MDA-MB-468 [6] = experiment: Binding ability of anti-serum derived from compound-vaccinated mouse to TF-negative human MDA-MB-468 cells cultured with FITC-labeled anti-IgG Ab assessed as positive fluorescent peak shift by FACS analysis; format: functional, cell-based
Mus musculus [7] = experiment: Antitumor activity in cyclophosphamide-treated Balb/c mouse assessed as survival ratio compound administered as liposomes subcutaneously on day 0 in presence of TF followed by administration of booster doses on days 14, 21 and 28 and implantation of mouse TA3/Ha cells on day 35 measured upto 50 days post-tumor challenge relative to control; format: functional; conditions: route sc; time <= 85 day
TA3/Ha [8] = experiment: Cytotoxicity against TF-positive mouse TA3/Ha cells treated with anti-serum derived from compound-vaccinated mouse for 2 hrs followed by anti-serum washout and addition of rabbit complement serum measured after 1 hr by LDH assay; format: functional, cell-based
TA3/Ha [9] = experiment: Binding ability of anti-serum derived from compound-vaccinated mouse to TF-positive mouse TA3/Ha cells cultured with FITC-labeled anti-IgG Ab assessed as positive fluorescent peak shift by FACS analysis; format: functional, cell-based
Mus musculus [10] = experiment: Antitumor activity in cyclophosphamide-treated Balb/c mouse assessed as protection against tumor development compound administered as liposomes subcutaneously on day 0 in presence of TF followed by administration of booster doses on days 14, 21 and 28 and implantation of mouse TA3/Ha cells on day 35 measured upto 50 days post-tumor challenge; format: functional, organism-based; conditions: route sc, time <= 85.0 day
TA3/Ha [11] = experiment: Binding ability of anti-serum derived from compound-vaccinated surviving mouse to TF-positive mouse TA3/Ha cells cultured with FITC-labeled anti-IgG Ab assessed as positive fluorescent peak shift by FACS analysis; format: functional, cell-based
Mus musculus [12] = experiment: Immunization of Balb/c mouse assessed as IgG titer compound administered as liposomes subcutaneously on day 0 in presence of TF followed by administration of booster doses on days 14, 21 and 28 measured on days 21, 27 and 38 by ELISA; format: functional; conditions: route sc; time 38 day
Mus musculus [13] = experiment: Immunization of Balb/c mouse assessed as decrease in TF-specific IgM titer compound administered as liposomes subcutaneously on day 0 in presence of TF followed by administration of booster doses on days 14, 21 and 28 measured on days 21, 27 and 38 by ELISA; format: functional, organism-based; conditions: route sc, time 38.0 day
Mus musculus [14] = experiment: Antitumor activity in Balb/c mouse assessed as average survival time compound administered as liposomes subcutaneously on day 0 in presence of TF followed by administration of booster doses on days 14, 21 and 28 and implantation of mouse TA3/Ha cells on day 35 measured upto 50 days post-tumor challenge; format: functional; conditions: route sc; time <= 85 day
[15] = molecular target: T2, C-type lectin domain family 4 member E (Homo sapiens) (UniProt Q9ULY5); experiment: Binding affinity to Fc-fused human Mincle incubated for 1.5 hrs by ELISA
T2 sequence (whole entry): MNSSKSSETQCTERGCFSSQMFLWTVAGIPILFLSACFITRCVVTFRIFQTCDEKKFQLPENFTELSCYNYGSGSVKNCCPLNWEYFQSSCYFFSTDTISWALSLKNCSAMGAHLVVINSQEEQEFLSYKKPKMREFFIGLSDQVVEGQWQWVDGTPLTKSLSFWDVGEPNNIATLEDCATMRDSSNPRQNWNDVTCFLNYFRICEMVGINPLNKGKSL

Mus musculus [16] = experiment: Antitumor activity in cyclophosphamide-treated Balb/c mouse assessed as rejection of tumor compound administered as liposomes subcutaneously on day 0 in presence of TF followed by administration of booster doses on days 14, 21 and 28 and implantation of mouse TA3/Ha cells on day 35 measured upto 50 days post-tumor challenge followed by re-implantation of another mouse TA3/Ha cells measured for another 100 days post-tumor challenge; format: functional, organism-based; conditions: route sc, time 185.0 day
MDA-MB-468 [17] = experiment: Cytotoxicity against TF-negative human MDA-MB-468 cells treated with anti-serum derived from compound-vaccinated mouse for 2 hrs followed by anti-serum washout and addition of rabbit complement serum measured after 1 hr by LDH assay; format: functional, cell-based
Mus musculus [18] = experiment: Antitumor activity in Balb/c mouse assessed as survival ratio compound administered as liposomes subcutaneously on day 0 in presence of TF followed by administration of booster doses on days 14, 21 and 28 and implantation of mouse TA3/Ha cells on day 35 measured upto 50 days post-tumor challenge relative to control; format: functional; conditions: route sc; time <= 85 day
Mus musculus [19] = experiment: Immunization of Balb/c mouse assessed as increase in IgG2a titer compound administered as liposomes subcutaneously on day 0 in presence of TF followed by administration of booster doses on days 14, 21 and 28 measured on days 21, 27 and 38 by ELISA; format: functional, organism-based; conditions: route sc, time 38.0 day
4T1-Luc [20] = experiment: Binding ability of anti-serum derived from compound-vaccinated mouse to TF-positive mouse 4T1-Luc cells cultured with FITC-labeled anti-IgG Ab assessed as positive fluorescent peak shift by FACS analysis; format: functional, cell-based
Mus musculus [21] = experiment: Immunization of Balb/c mouse assessed as IFN-gamma level compound administered as liposomes subcutaneously on day 0 in presence of TF followed by administration of booster doses on days 14, 21 and 28 measured on days 21, 27 and 38 by ELISA; format: functional; conditions: route sc; time 38 day
Mus musculus [22] = experiment: Immunization of Balb/c mouse assessed as increase in kappa light chain titer compound administered as liposomes subcutaneously on day 0 in presence of TF followed by administration of booster doses on days 14, 21 and 28 measured on days 21, 27 and 38 by ELISA; format: functional, organism-based; conditions: route sc, time 38.0 day
Mus musculus [23] = experiment: Antitumor activity in cyclophosphamide-treated surviving Balb/c mouse assessed as increase in IgG antibody titer compound administered as liposomes subcutaneously on day 0 in presence of TF followed by administration of booster doses on days 14, 21 and 28 and implantation of mouse TA3/Ha cells on day 35 measured upto 50 days post-tumor challenge followed by re-implantation of another mouse TA3/Ha cells measured for another 30 days post-tumor challenge by ELISA; format: functional, organism-based; conditions: route sc, time <= 115.0 day

Compound | Activity (4T1-Luc [1]) | Time (Mus musculus [2]) [days] | Activity (Mus musculus [3]) | Activity (Mus musculus [4]) | Activity [5] | Activity (MDA-MB-468 [6]) | Survival (Mus musculus [7]) [%] | Activity (TA3/Ha [8]) | Activity (TA3/Ha [9]) | Activity (Mus musculus [10]) | Activity (TA3/Ha [11]) | Activity (Mus musculus [12]) | Activity (Mus musculus [13]) | Activity [15] | Activity (Mus musculus [16]) | Activity (MDA-MB-468 [17]) | Activity (4T1-Luc [20]) | Activity (Mus musculus [22]) | Activity (Mus musculus [23]) | also measured
CCCCCCCCCCCCCCCCCCCCCCCCCC(=O)N[C@@H](CO[C@H]1O[C@H](CNC(=O)CCCCC(=O)NCCCC[C@H](NC(=O)CCC(=O)NCCOCCO[C@H]2[C@H](O)[C@@H](O)[C@@H](O[C@H]3O[C@H](COC(=O)CC(CCCCCCCCC)CCCCCCCCC)[C@@H](O)[C@H](O)[C@H]3O)O[C@@H]2COC(=O)CC(CCCCCCCCC)CCCCCCCCC)C(=O)NCc2cn(CCO[C@H]3O[C@H](CO)[C@H](O)[C@H](O[C@@H]4O[C@H](CO)[C@H](O)[C@H](O)[C@H]4O)[C@H]3NC(C)=O)nn2)[C@H](O)[C@H](O)[C@H]1O)[C@H](O)[C@H](O)CCCCCCCCCCCCCC | Active; Result Reveals That The Anti-Serum Induced By Compound Effectively Activated The Complement System | 43.8 | Active | Active | Active | inactive | 75 | Active; Result Reveals That The Anti-Serum Induced By Compound Effectively Activated The Complement System | Active; Compound-Derived Antibodies In Antiserum Exhibited Strongest Binding Activity | Active | Active | 96611 | Active; Result Reveals That Efficient Conversion Of Igm To Igg Had Occurred And That Long-Term Secondary Immune Responses Had Been Triggered | Active | Active | inactive | Active; Compound-Derived Antibodies In Antiserum Exhibited Strongest Binding Activity | Active; Compound Induced Strong Tf-Specific And T-Cell-Dependent Immune Response | Active; Exhibited Superior Effect | Time (Mus musculus [14]): 34.5 days; Survival (Mus musculus [18]): 37.5%; Activity (Mus musculus [19]): Active; Activity (Mus musculus [21]): 263 pg/mL
CCCCCCCCCC(CCCCCCCCC)CC(=O)OC[C@H]1O[C@H](O[C@H]2O[C@H](COC(=O)CC(CCCCCCCCC)CCCCCCCCC)[C@@H](OCCOCCNC(=O)CCC(=O)NCc3cn(CCO[C@H]4O[C@H](CO)[C@H](O)[C@H](O[C@@H]5O[C@H](CO)[C@H](O)[C@H](O)[C@H]5O)[C@H]4NC(C)=O)nn3)[C@H](O)[C@H]2O)[C@H](O)[C@@H](O)[C@@H]1O | Active; Result Reveals That The Anti-Serum Induced By Compound Effectively Activated The Complement System | 38.8 | Active | Active | – | inactive | 50 | Active; Result Reveals That The Anti-Serum Induced By Compound Effectively Activated The Complement System | Active | Active | Active | 66937 | Active; Result Reveals That Efficient Conversion Of Igm To Igg Had Occurred And That Long-Term Secondary Immune Responses Had Been Triggered | Active | Active | inactive | Active | Active; Compound Induced Strong Tf-Specific And T-Cell-Dependent Immune Response | Active | –
CCCCCCCCCCCCCCCCCCCCCCCCCC(=O)N[C@@H](CO[C@H]1O[C@H](CNC(=O)CCCCC(=O)NCc2cn(CCO[C@H]3O[C@H](CO)[C@H](O)[C@H](O[C@@H]4O[C@H](CO)[C@H](O)[C@H](O)[C@H]4O)[C@H]3NC(C)=O)nn2)[C@H](O)[C@H](O)[C@H]1O)[C@H](O)[C@H](O)CCCCCCCCCCCCCC | Active; Result Reveals That The Anti-Serum Induced By Compound Effectively Activated The Complement System | 34.4 | Active | Active | Active | inactive | 37.5 | Active; Result Reveals That The Anti-Serum Induced By Compound Effectively Activated The Complement System | Active | Active | Active | 54112 | Active; Result Reveals That Efficient Conversion Of Igm To Igg Had Occurred And That Long-Term Secondary Immune Responses Had Been Triggered | – | Active | inactive | Active | Active; Compound Induced Strong Tf-Specific And T-Cell-Dependent Immune Response | Active | –
